In patent publication US20070099938A1, “Antistress drug and medical use thereof” (ONO PHARMACEUTICAL CO., LTD., priority 2003, published 2007):
pKi: −log10 of the molar value.

Target: T1, MBR (Rattus norvegicus, UniProt P16257)
T1 construct: from tissue; host or cells: whole brain without cerebellum of male Wistar rats, crude membrane pellet
Experiment: Receptor binding experiment ([3H]PK11195 competition, rat brain membrane preparation)
Settings: [3H]PK11195 0.5 or 1 nmol/L, Cheng and Prusoff from KD and IC50
Method: The affinity of the compounds in the present invention to MBR was determined using rat brain membrane preparation. In addition, the measurement in the present invention was improved the accuracy of measurement and the sensitivity of measurement for evaluating the compounds in the present invention as follows. After male Wister rats were decapitated to extirpate the whole brain and cerebellums were removed. They were homogenized in ice-cold 50 mmol/L Tris-HCL buffer solution (pH 7.4), centrifuged and the obtained pellets were washed. The pellets resuspended and adjusted to about 1 mg/mL were used as rat brain membrane preparations for binding assay. The binding assay were experimented using [^3H]PK11195 as a MBR selective ligand. […]
To determine the amount of total binding in saturation binding experiment, membrane preparations, various concentrations of [^3H]PK11195, final concentration: 0.5 vol % dimethylsulfoxide (DMSO) and 50 mmol/L Tris-HCL buffer solution (pH 7.4) were mixed (total volume 200 μL) and were incubated for 1 hour at room temperature. […] The filter was dried and then the radioactivity on the filter was measured by liquid scintillation counter. The data obtained by the binding experiments were Scatchard analyzed using analysis software, KELL (Ver.6, BIOSOFT) and the dissociation constant (KD value) was determined. […]

| SMILES | pKi |
| --- | --- |
| CC(=O)Nc1cccc(-c2ccnc(NC(=O)c3ccccc3)n2)c1 [Example 3(46), N-{4-[3-(acetylamino)phenyl]pyrimidin-2-yl}benzamide] | 6.44 |
| O=S(=O)(Nc1nccc(-c2cc(OC(F)F)ccc2OC(F)F)n1)c1ccccc1 [Example 5(2), N-{4-[2,5-bis(difluoromethoxy)phenyl]pyrimidin-2-yl}benzenesulfonamide] | 8.00 |
